Laboratory results published in patent US20250051361A1, “5,6,7,8-TETRAHYDRO-2,6-NAPHTHYRIDINE DERIVATIVES AS CANCER THERAPEUTICS” (VRise Therapeutics, Inc., priority 2021, published 2025).
Counter-ions that a name gives are not always drawn.

Assays:
HPAC cells = experiment: In vitro cell proliferation assay in HPAC cell line; format: cell-based; conditions: for inhibition at 3 µM / inhibition at 10 µM: Homo sapiens; for inhibition at 3 µM / % Inhibition of Cell Proliferation HPAC TC1: TC1: Test Concentration of 3 uM; for inhibition at 10 µM: TC2: Test Concentration of 10 uM; for % Inhibition of Cell Proliferation HPAC TC1: 3 µM
Description: (§1) Test 1: In Vitro Cell Proliferation Assay in HPAC and AGS Cell Lines
(§2) Growth inhibition assays was carried out using 10% FBS supplemented media. Cells are to be seeded at a concentration of 2000-3,000 cells/well in a 96-well plate. Test compounds at a concentration range from 0.1 to 30 uM will be added after 24 hours. Growth will be assessed using the MTT or CCK-8 kit for measuring reduction at 0 h (prior to the addition of the test compound) and 72 to 96 hours after the addition of test compound. Absorbance read on a BIO-RAD iMark Microplate or any equivalent micloplate reader at a wavelength of 450 nm to 600 nm. Data will be analyzed and percent inhibition due to the test compound compared to the control is calculated accordingly.

AGS cells = experiment: In vitro cell proliferation assay in AGS cell line; format: cell-based; conditions: Homo sapiens; for inhibition at 3 µM: TC1: Test Concentration of 3 uM; for inhibition at 10 µM: TC2: Test Concentration of 10 uM
Description: as §1, §2

human KRAS G12D protein = molecular target: T1, human KRAS G12D protein (Homo sapiens, UniProt P01116, G12D); experiment: HTRF-based nucleotide exchange assay detecting GTP binding to K-Ras; format: biochemical; conditions: human KRAS G12D (amino acid 2-169), SOS1 mediated exchange
T1 construct: A human KRAS G12D protein (corresponding to amino acid 2-169)
Description: Test 3: Nucleotide Exchange Assay HTRF-based nucleotide exchange assay detecting GTP binding to K-Ras A human KRAS G12D protein (corresponding to amino acid 2-169) was mixed with a a-GST Tb antibody (1.5× solution) and 10 uL of the solution was added to the reaction wells). Compounds (each 10 concentrations or any other concentration of choice at 3-fold or fold of choice for serial dilutions with a starting concentration of […] or or 100 μM or 50 uM) were then delivered to the reaction wells using acoustic dispenser (Echo, Labcyte) and incubated with the Kras/aGST-Tb antibody for 1-hour at room temperature. […] HTRF based SOS1 mediated exchange of GDP to GTP was measured on a microplate reader […] (BMG Labtech) at an excitation wavelength of 337 nm and emission wavelengths of 665 and 620 nm. No-SOS1 reaction or highest control compound concentration was used as blank and % inhibition was calculated and/or IC50 was determined using Sigmoidal dose response (variable slope) equation.

T1 sequence (P01116 2-169 isoform P01116-2 G12D): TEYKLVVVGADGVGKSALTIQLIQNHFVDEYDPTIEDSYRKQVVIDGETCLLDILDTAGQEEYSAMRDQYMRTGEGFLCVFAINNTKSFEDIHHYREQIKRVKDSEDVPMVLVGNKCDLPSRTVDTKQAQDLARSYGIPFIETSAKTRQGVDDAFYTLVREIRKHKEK

Row | Structure (SMILES) | inhibition at 3 µM (HPAC cells) | inhibition at 10 µM (HPAC cells) | inhibition at 3 µM (AGS cells) | inhibition at 10 µM (AGS cells) | other results
1 | CC(C)[C@@H](NC(=O)OC(C)(C)C)C(=O)N1CCN(c2nc(OC[C@@H]3CCCN3C)c(C#N)c3c2CCN(Cc2ccccc2)C3)CC1 [Ex 20, tert-butyl ((R)-1-(4-(6-benzyl-4-cyano-3-(((S)-1-methylpyrrolidin-2-yl)methoxy)-5,6,7,8-tetrahydro-2,6-naphthyridin-1-yl)piperazin-1-yl)-3-methyl-1-oxobutan-2-yl)carbamate] | ≤ 25% | 25 to 50% | – | – | –
2 | CN1CCC[C@H]1COc1nc(N2CC3CCC(C2)N3)c2c(c1C#N)CN(c1cc(O)cc3ccccc13)CC2 [Ex 1, 1-(3,8-diazabicyclo[3.2.1]octan-3-yl)-6-(3-hydroxynaphthalen-1-yl)-3-(((S)-1-methylpyrrolidin-2-yl)methoxy)-5,6,7,8-tetrahydro-2,6-naphthyridine-4-carbonitrile, hydrochloride] | – | – | 25 to 50% | 75 to 100% | –
3 | CN1CCC[C@H]1COc1nc(N2CC3CCC(C2)N3)c2c(c1C#N)CN(Cc1ccccc1)CC2 [Ex 18, 6-benzyl-1-(3,8-diazabicyclo[3.2.1]octan-3-yl)-3-(((S)-1-methylpyrrolidin-2-yl)methoxy)-5,6,7,8-tetrahydro-2,6-naphthyridine-4-carbonitrile Hydrochloride] | ≤ 25% | 25 to 50% | 25 to 50% | 75 to 100% | –
4 | N#Cc1c(OCC2(CN3CCOCC3)CC2)nc(N2C[C@H]3CC[C@@H](C2)N3)c2c1CN(Cc1ccccc1)CC2 [Ex 24, 6-benzyl-1-((1R,5S)-3,8-diazabicyclo[3.2.1]octan-3-yl)-3-((1-(morpholinomethyl)cyclopropyl)methoxy)-5,6,7,8-tetrahydro-2,6-naphthyridine-4-carbonitrile Hydrochloride] | ≤ 25% | 25 to 50% | – | – | IC50 (human KRAS G12D protein): > 1000 nM
5 | C[C@H]1CNCCN1c1nc(OCC2CCCN2C)c(C#N)c2c1CCN(Cc1ccccc1)C2 (stereo partly drawn) [Ex 75, 6-benzyl-1-((S)-2-methylpiperazin-1-yl)-3-((1-methylpyrrolidin-2-yl)methoxy)-5,6,7,8-tetrahydro-2,6-naphthyridine-4-carbonitrile hydrochloride] | ≤ 25% | ≤ 25% | ≤ 25% | ≤ 25% | –
6 | CN1CCC[C@H]1COc1nc(N2[C@@H]3CC[C@H]2CNC3)c2c(c1C#N)CN(c1cc(O)cc3cccc(Br)c13)CC2 [Ex 15, 1-((1R,5S)-3,8-diazabicyclo[3.2.1]octan-8-yl)-6-(8-bromo-3-hydroxynaphthalen-1-yl)-3-(((S)-1-methylpyrrolidin-2-yl)methoxy)-5,6,7,8-tetrahydro-2,6-naphthyridine-4-carbonitrile Hydrochloride] | ≤ 25% | 75 to 100% | – | – | –
7 | CN1CCC[C@H]1COc1nc(N2[C@@H]3CC[C@H]2CNC3)c2c(c1C#N)CN(c1cc(O)cc3ccccc13)CC2 [Ex 5, 1-((1R,5S)-3,8-diazabicyclo[3.2.1]octan-8-yl)-6-(3-hydroxynaphthalen-1-yl)-3-(((S)-1-methylpyrrolidin-2-yl)methoxy)-5,6,7,8-tetrahydro-2,6-naphthyridine-4-carbonitrile Hydrochloride] | – | – | 25 to 50% | 75 to 100% | –
8 | N#Cc1c(OCC23CCCN2CCC3)nc(N2[C@@H]3CC[C@H]2CNC3)c2c1CN(c1cccc3cccc(Br)c13)CC2 [Ex 7, 1-((1R,5S)-3,8-diazabicyclo[3.2.1]octan-8-yl)-6-(8-bromonaphthalen-1-yl)-3-((tetrahydro-1H-pyrrolizin-7a(5H)-yl)methoxy)-5,6,7,8-tetrahydro-2,6-naphthyridine-4-carbonitrile TFA salt] | 75 to 100% | 75 to 100% | – | – | –
9 | CN1CCC[C@H]1COc1nc(N2CCNC(CC#N)C2)c2c(c1C#N)CN(c1cccc3cccc(Cl)c13)CC2 (stereo partly drawn) [Ex 3, 6-(8-chloronaphthalen-1-yl)-1-(3-(cyanomethyl)piperazin-1-yl)-3-(((S)-1-methylpyrrolidin-2-yl)methoxy)-5,6,7,8-tetrahydro-2,6-naphthyridine-4-carbonitrile hydrochloride] | – | – | 25 to 50% | 75 to 100% | –
10 | C#Cc1cccc2cc(O)cc(N3CCc4c(N5[C@@H]6CC[C@H]5CNC6)nc(OCC56CCCN5CCC6)c(C#N)c4C3)c12 [Ex 14, 1-((1R,5S)-3,8-diazabicyclo[3.2.1]octan-8-yl)-6-(8-ethynyl-3-hydroxynaphthalen-1-yl)-3-((tetrahydro-1H-pyrrolizin-7a(5H)-yl)methoxy)-5,6,7,8-tetrahydro-2,6-naphthyridine-4-carbonitrile Hydrochloride] | ≤ 25% | 50 to 75% | – | – | –
11 | CC(C)[C@@H](N)C(=O)N1CCN(c2nc(OC[C@@H]3CCCN3C)c(C#N)c3c2CCN(Cc2ccccc2)C3)CC1 [Ex 21, 1-(4-(D-valyl)piperazin-1-yl)-6-benzyl-3-(((S)-1-methylpyrrolidin-2-yl)methoxy)-5,6,7,8-tetrahydro-2,6-naphthyridine-4-carbonitrile Hydrochloride] | ≤ 25% | ≤ 25% | – | – | –
12 | CN1CCC[C@H]1COc1nc(N2[C@@H]3CC[C@H]2CNC3)c2c(c1C#N)CN(c1cccc3cccc(Br)c13)CC2 [Ex 10, 1-((1R,5S)-3,8-diazabicyclo[3.2.1]octan-8-yl)-6-(8-bromonaphthalen-1-yl)-3-(((S)-1-methylpyrrolidin-2-yl)methoxy)-5,6,7,8-tetrahydro-2,6-naphthyridine-4-carbonitrile Hydrochloride] | 75 to 100% | 75 to 100% | – | – | –
13 | C#Cc1cccc2cccc(N3CCc4c(N5[C@@H]6CC[C@H]5CNC6)nc(OCC56CCCN5CCC6)c(C#N)c4C3)c12 [Ex 8, 1-((1R,5S)-3,8-diazabicyclo[3.2.1]octan-8-yl)-6-(8-ethynylnaphthalen-1-yl)-3-((tetrahydro-1H-pyrrolizin-7a(5H)-yl)methoxy)-5,6,7,8-tetrahydro-2,6-naphthyridine-4-carbonitrile TFA Salt] | – | 50 to 75% | – | – | % Inhibition of Cell Proliferation HPAC TC1 (HPAC cells; TFA Salt): A (A = ≤25%)
14 | C[C@@H](OCc1ccccc1)[C@H](N)C(=O)N1CCN(c2nc(OC[C@@H]3CCCN3C)c(C#N)c3c2CCN(Cc2ccccc2)C3)CC1 [Ex 23, 6-benzyl-1-(4-(O-benzyl-L-threonyl)piperazin-1-yl)-3-(((S)-1-methylpyrrolidin-2-yl)methoxy)-5,6,7,8-tetrahydro-2,6-naphthyridine-4-carbonitrile Hydrochloride] | ≤ 25% | 50 to 75% | – | – | –
15 | N#Cc1c(OCC23CCCN2C[C@H](F)C3)nc(N2CC3CCC(C2)N3)c2c1CN(Cc1ccccc1)CC2 (stereo partly drawn) [Ex 19, 6-benzyl-1-(3,8-diazabicyclo[3.2.1]octan-3-yl)-3-(((2R)-2-fluorotetrahydro-1H-pyrrolizin-7a(5H)-yl)methoxy)-5,6,7,8-tetrahydro-2,6-naphthyridine-4-carbonitrile Hydrochloride] | ≤ 25% | 75 to 100% | 25 to 50% | 50 to 75% | IC50 (human KRAS G12D protein): > 1000 nM
16 | C#Cc1cccc2cccc(N3CCc4c(N5[C@@H]6CC[C@H]5CNC6)nc(OCC56CCCN5CCC6)c(C#N)c4C3)c12 [Ex 12, 1-((1R,5S)-3,8-diazabicyclo[3.2.1]octan-8-yl)-6-(8-ethynylnaphthalen-1-yl)-3-((tetrahydro-1H-pyrrolizin-7a(5H)-yl)methoxy)-5,6,7,8-tetrahydro-2,6-naphthyridine-4-carbonitrile Hydrochloride] | – | – | – | – | % Inhibition of Cell Proliferation HPAC TC1 (HPAC cells; Hydrochloride): C (C = >50 to ≤75)
17 | CN1CCC[C@H]1COc1nc(N2[C@@H]3CC[C@H]2CN(C(=O)OC(C)(C)C)C3)c2c(c1C#N)CN(c1cc(O)cc3ccccc13)CC2 [Ex 4, tert-butyl (1R,5S)-8-(4-cyano-6-(3-hydroxynaphthalen-1-yl)-3-(((S)-1-methylpyrrolidin-2-yl)methoxy)-5,6,7,8-tetrahydro-2,6-naphthyridin-1-yl)-3,8-diazabicyclo[3.2.1]octane-3-carboxylate] | – | – | 75 to 100% | 75 to 100% | –
18 | N#Cc1c(OCC23CCCN2CCC3)nc(N2[C@@H]3CC[C@H]2CNC3)c2c1CN(c1cc(O)cc3cccc(Br)c13)CC2 [Ex 9, 1-((1R,5S)-3,8-diazabicyclo[3.2.1]octan-8-yl)-6-(8-bromo-3-hydroxynaphthalen-1-yl)-3-((tetrahydro-1H-pyrrolizin-7a(5H)-yl)methoxy)-5,6,7,8-tetrahydro-2,6-naphthyridine-4-carbonitrile Hydrochloride] | ≤ 25% | 75 to 100% | – | – | –
